Reference: the NIST ThermoML archive (doi:10.1016/j.tca.2005.04.030)

Columns and labels:
[1] = refractive index (Na D-line) (dimensionless); xn = mol fraction of the nth substance listed; conditions: 298 K, 101 kPa, Liquid, ATAGO RX-1000
[2] = xn = mol fraction of the nth substance listed; conditions: 298 K, 101 kPa, Liquid; for speed of sound: Anton Paar DSA 48; for mass density: Vibrating tube method

CCCCOC(C)(C)C [butane, 1-(1,1-dimethylethoxy)-] + CO
Conditions | mass density, [2] [kg/m3] | refractive index, [1] | speed of sound, [2] [m/s]
x1 = 0.0406 | 783.42 | 1.33673 | 1103
x1 = 0.0518 | 782.76 | 1.33916 | 1104
x1 = 0.0974 | 780.08 | 1.34774 | 1103
x1 = 0.0984 | 779.91 | 1.34786 | 1104
x1 = 0.1493 | 777.55 | 1.35545 | 1105
x1 = 0.198 | 775.42 | 1.36125 | 1107
x1 = 0.2051 | 775.26 | 1.36198 | 1107
x1 = 0.2448 | 773.83 | 1.3658 | 1108
x1 = 0.2974 | 772.2 | 1.37001 | 1109
x1 = 0.3373 | 770.98 | 1.37281 | 1109
x1 = 0.3581 | 770.41 | 1.37411 | 1109
x1 = 0.3783 | 769.88 | 1.37529 | 1109
x1 = 0.3922 | 769.7 | 1.37605 | 1111
x1 = 0.4633 | 767.85 | 1.37952 | 1111
x1 = 0.4954 | 767.15 | 1.38087 | 1113
x1 = 0.5003 | 767.05 | 1.38106 | 1111
x1 = 0.5598 | 765.86 | 1.38325 | 1112
x1 = 0.5955 | 765.21 | 1.3845 | 1114
x1 = 0.6138 | 764.85 | 1.38496 | 1113
x1 = 0.6463 | 764.27 | 1.38588 | 1113
x1 = 0.6737 | 763.79 | 1.3866 | 1114
x1 = 0.6923 | 763.48 | 1.38706 | 1114
x1 = 0.721 | 762.99 | 1.38773 | 1114
x1 = 0.7904 | 761.8 | 1.38914 | 1114
x1 = 0.7934 | 761.75 | 1.38918 | 1114
x1 = 0.8479 | 760.78 | 1.3901 | 1114
x1 = 0.8631 | 760.5 | 1.39032 | 1114
x1 = 0.8964 | 759.86 | 1.3907 | 1115
x1 = 0.9255 | 759.26 | 1.39109 | 1114

CCCCOC(C)(C)C [butane, 1-(1,1-dimethylethoxy)-] + CCO
Conditions | mass density, [2] [kg/m3] | refractive index, [1] | speed of sound, [2] [m/s]
x1 = 0.0493 | 782.41 | 1.36389 | 1141
x1 = 0.0589 | 781.92 | 1.36463 | 1139
x1 = 0.0797 | 780.9 | 1.36652 | 1139
x1 = 0.1006 | 779.92 | 1.36783 | 1136
x1 = 0.1555 | 777.57 | 1.37143 | 1133
x1 = 0.1947 | 776.05 | 1.37365 | 1132
x1 = 0.1978 | 775.98 | 1.37382 | 1132
x1 = 0.2528 | 773.99 | 1.3765 | 1129
x1 = 0.2923 | 772.71 | 1.37818 | 1127
x1 = 0.2967 | 772.6 | 1.37834 | 1128
x1 = 0.3512 | 770.96 | 1.38037 | 1125
x1 = 0.3966 | 769.83 | 1.38183 | 1124
x1 = 0.397 | 769.71 | 1.38186 | 1124
x1 = 0.4313 | 768.83 | 1.38287 | 1123
x1 = 0.4999 | 767.3 | 1.38462 | 1122
x1 = 0.5118 | 766.95 | 1.38494 | 1121
x1 = 0.559 | 765.94 | 1.38599 | 1120
x1 = 0.5953 | 765.3 | 1.38674 | 1119
x1 = 0.5964 | 765.18 | 1.38674 | 1119
x1 = 0.6627 | 763.92 | 1.38795 | 1118
x1 = 0.6853 | 763.6 | 1.38828 | 1120
x1 = 0.7044 | 763.16 | 1.38862 | 1118
x1 = 0.7441 | 762.45 | 1.3892 | 1117
x1 = 0.7814 | 761.8 | 1.3897 | 1117
x1 = 0.7853 | 761.72 | 1.38986 | 1118
x1 = 0.8493 | 760.58 | 1.3905 | 1116
x1 = 0.9072 | 759.5 | 1.39106 | 1115
x1 = 0.9404 | 758.85 | 1.39132 | 1115
